Test results from US20240286998A1, “F[…], ANALOGUES THEREOF, AND METHODS USING SAME” (Saint Joseph's University, priority 2021, published 2024).
Where two headings read alike, the source gives them in different places.

Tests used:
[1] = target: 5-HT2B (Homo sapiens (Human), UniProt P41595); assay: 5-HT2B Gq-mediated calcium flux functional assay; assay type: cell-based
[2] = target: 5-HT1A (Homo sapiens (Human), UniProt P08908); assay: 5-HT1A Gi/o-mediated cAMP inhibition, GloSensor assay; assay type: cell-based
[3] = target: 5-HT2C (Homo sapiens (Human), UniProt P28335); assay: 5-HT2C Gq-mediated calcium flux functional assay; assay type: cell-based
Sequence of 5-HT2C (P28335 whole entry, looked up): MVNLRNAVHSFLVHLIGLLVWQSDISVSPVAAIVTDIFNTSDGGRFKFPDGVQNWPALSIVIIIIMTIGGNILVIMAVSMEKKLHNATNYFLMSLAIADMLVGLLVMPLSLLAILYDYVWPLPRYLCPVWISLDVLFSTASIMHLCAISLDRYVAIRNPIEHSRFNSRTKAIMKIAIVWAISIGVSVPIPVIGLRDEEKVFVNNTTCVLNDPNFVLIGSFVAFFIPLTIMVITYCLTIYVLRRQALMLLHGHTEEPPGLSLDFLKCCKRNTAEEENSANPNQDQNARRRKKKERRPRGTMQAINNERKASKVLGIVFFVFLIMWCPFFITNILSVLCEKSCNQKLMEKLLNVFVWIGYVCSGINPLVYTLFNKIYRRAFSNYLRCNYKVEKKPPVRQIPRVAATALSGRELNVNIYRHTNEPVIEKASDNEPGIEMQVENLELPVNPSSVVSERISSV

[4] = target: Serotonin 5-HT2A (human) (Homo sapiens (Human), UniProt P28223); assay: 5-HT2A receptor binding, [3H]-ketanserin competition in membrane fractions; details: 1 nM [3H]-ketanserin, Cheng-Prusoff, N=1-3
[5] = target: 5-HT2A (Homo sapiens (Human), UniProt P28223); assay: 5-HT2A Gq-mediated calcium flux functional assay; assay type: cell-based
[6] = cAMP inhibition, 0.2 μM isoproterenol, IA = Inactive
[7] = IA = Inactive, N=1-3, read-out: 5-HT2B-Ca2+ FLUX pEC50 (converted)
[8] = IA = Inactive, N=1-3, read-out: 5-HT2A-Ca2+ FLUX pEC50 (converted)

Sequence of 5-HT2B (P41595 whole entry): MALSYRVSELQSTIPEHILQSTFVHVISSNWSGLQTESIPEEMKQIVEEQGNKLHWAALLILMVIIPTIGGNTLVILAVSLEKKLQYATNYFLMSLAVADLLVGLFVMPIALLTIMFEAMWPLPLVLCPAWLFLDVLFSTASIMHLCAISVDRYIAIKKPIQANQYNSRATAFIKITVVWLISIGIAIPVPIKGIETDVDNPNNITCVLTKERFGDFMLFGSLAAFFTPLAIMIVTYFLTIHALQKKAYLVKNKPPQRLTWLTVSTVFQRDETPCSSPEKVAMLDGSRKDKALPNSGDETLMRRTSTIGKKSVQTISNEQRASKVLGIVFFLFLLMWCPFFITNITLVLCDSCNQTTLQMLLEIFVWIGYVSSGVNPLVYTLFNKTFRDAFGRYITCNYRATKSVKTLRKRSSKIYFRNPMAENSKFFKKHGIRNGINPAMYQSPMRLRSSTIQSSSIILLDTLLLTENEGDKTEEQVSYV

| SMILES | 5-HT2B-Ca2+ FLUX Emax (% 5-HT) ([1]; IA = Inactive, N=1-3) | 5-HT2C-Ca2+ FLUX Emax (% 5-HT) ([3]; IA = Inactive, N=1-3) | 5-HT2A pKi ± SEM [4] | 5-HT2A-Ca2+ FLUX Emax (% 5-HT) ([5]; IA = Inactive, N=1-3) | EC50 [3] | EC50 [5] | further results |
| --- | --- | --- | --- | --- | --- | --- | --- |
| CN(C)CCc1c[nH]c2ccc(F)cc12 [Compound 5-F-DMT] | 61.1 ± 2.0 % 5-HT | 100.3 ± 1.8 % 5-HT | 6.65 | 96.6 ± 1.0 % 5-HT | – | – | 5-HT2B-Ca2+ FLUX pEC50 ([1]; IA = Inactive, N=1-3): 8.70 ± 0.11; 5-HT1A-cAMP Emax (% 5-HT) [2, 6]: 94.2 ± 3.4 % 5-HT; 5-HT1A-cAMP pEC50 [2, 6]: 6.69 ± 0.08; 5-HT2C-Ca2+ FLUX pEC50 ([3]; IA = Inactive, N=1-3): 8.8 ± 0.06; 5-HT2A-Ca2+ FLUX pEC50 ([5]; IA = Inactive, N=1-3): 8.70 ± 0.03 |
| CCN(C)CCc1c[nH]c2c(F)cccc12 [Example 7, N-ethyl-2-(7-fluoro-1H-indol-3-yl)-N-methylethan-1-amine] | – | – | 6.02 | – | – | – | – |
| C=CCN(CCc1c[nH]c2ccc(F)cc12)C(C)C [Example 11, N-(2-(5-fluoro-1H-indol-3-yl)ethyl)-N-isopropylprop-2-en-1-amine] | 98.8 ± 1.6 % 5-HT | 101.5 ± 2.8 % 5-HT | – | 105.4 ± 2.1 % 5-HT | 20.4 nM | 0.617 nM | EC50 [1]: 0.794 nM; EC50 [2]: 151 nM; 5-HT1A-cAMP Emax (% 5-HT) [2, 6]: 95.5 ± 1.7 % 5-HT |
| C=CCN(CCc1c[nH]c2ccc(F)cc12)C1CCC1 [Example 14, N-allyl-N-(2-(5-fluoro-1H-indol-3-yl)ethyl)cyclobutanamine] | – | – | 6.09 | – | – | – | – |
| CC(C)N(CC#N)CCc1c[nH]c2ccc(F)cc12 [compound 17, 2-((2-(5-fluoro-1H-indol-3-yl)ethyl)(isopropyl)amino)acetonitrile] | – | – | 5.41 | – | – | – | – |
| CN(CCc1c[nH]c2ccc(F)cc12)C1CSC1 [compound 20, N-(2-(5-fluoro-1H-indol-3-yl)ethyl)-N-methylthietan-3-amine] | 17.3 ± 1.1 % 5-HT | 55.0 ± 2.8 % 5-HT | – | 61.8 ± 3.2 % 5-HT | – | – | EC50 [1, 7]: 2.4 nM; EC50 [2]: 794 nM; 5-HT1A-cAMP Emax (% 5-HT) [2, 6]: 93.1 ± 2.5 % 5-HT; EC50 ([3]; IA = Inactive, N=1-3, read-out: 5-HT2C-Ca2+ FLUX pEC50 (converted)): 468 nM; EC50 [5, 8]: 28.8 nM |
| CCCN(CC)CCc1c[nH]c2ccc(F)c(F)c12 [compound 21, N-(2-(4,5-difluoro-1H-indol-3-yl)ethyl)-N-ethylpropan-1-amine] | – | – | 6.15 | – | – | – | – |
| C#CCN(CCc1c[nH]c2ccc(F)cc12)C(C)C [compound 34, N-(2-(5-fluoro-1H-indol-3-yl)ethyl)-N-isopropylprop-2-yn-1-amine] | – | – | 5.78 | – | – | – | – |
| C=CCN(CCC)CCc1c[nH]c2ccc(F)cc12 [compound 35, N-(2-(5-fluoro-1H-indol-3-yl)ethyl)-N-propylprop-2-en-1-amine] | – | – | 6.38 ± 0.29 | – | – | – | – |
| CCCN(CC)CCc1c[nH]c2cc(Cl)c(F)cc12 [compound 37, N-(2-(6-chloro-5-fluoro-1H-indol-3-yl)ethyl)-N-ethylpropan-1-amine] | – | – | 6.04 ± 0.05 | – | – | – | – |
| CC(C)CN(C)CCc1c[nH]c2ccc(F)cc12 [compound 39, N-(2-(5-fluoro-1H-indol-3-yl)ethyl)-N,2-dimethylpropan-1-amine] | – | – | 6.12 | – | – | – | – |
| CCCN(CC)CCc1c[nH]c2c(F)cc(F)cc12 [compound 72, N-[2-(5,7-difluoro-1H-indol-3-yl)ethyl]-N-ethylpropan-1-amine] | – | – | 6.30 ± 0.06 | – | – | – | – |
| CCCN(CC)CCc1c[nH]c2c(F)c(F)ccc12 [compound 82, N-(2-(6,7-difluoro-1H-indol-3-yl)ethyl)-N-ethylpropan-1-amine] | 86.3 ± 0.8 % 5-HT | 89.6 ± 1.7 % 5-HT | 6.52 | 90.4 ± 0.7 % 5-HT | 195 nM | 10.5 nM | EC50 [1]: 66.1 nM |
| CCC(C)N(CCc1c[nH]c2ccc(F)cc12)C1CCC1 (stereo not shown) [compound 158, N-(sec-butyl)-N-(2-(5-fluoro-1H-indol-3-yl)ethyl)cyclobutanamine] | – | – | 6.08 ± 0.15 | – | – | – | – |
| CN(CCc1c[nH]c2ccc(F)cc12)C1CC1 [compound 160, N-(2-(5-fluoro-1H-indol-3-yl)ethyl)-N-methylcyclopropanamine] | – | – | 7.41 ± 0.33 | – | – | – | – |
| CCCN(CCc1c[nH]c2ccc(F)cc12)C1CC1 [compound 161, N-[2-(5-fluoro-1H-indol-3-yl)ethyl]-N-propylcyclopropanamine] | – | – | 6.50 | – | – | – | – |
| CCCN(CCc1c[nH]c2c(F)cccc12)C1CCC1 [compound 162, N-(2-(7-fluoro-1H-indol-3-yl)ethyl)-N-propylcyclobutanamine] | – | – | 5.91 | – | – | – | – |

| SMILES | 5-HT2B-Ca2+ FLUX Emax (% 5-HT) ([1]; IA = Inactive, N=1-3) | 5-HT2C-Ca2+ FLUX Emax (% 5-HT) ([3]; IA = Inactive, N=1-3) | 5-HT2A pKi ± SEM [4] | 5-HT2A-Ca2+ FLUX Emax (% 5-HT) ([5]; IA = Inactive, N=1-3) | EC50 [3] | EC50 [5] | further results |
| --- | --- | --- | --- | --- | --- | --- | --- |
| CCCN(CCc1c[nH]c2c(F)cccc12)C(C)CC (stereo not shown) [compound 163, N-[2-(7-fluoro-1H-indol-3-yl)ethyl]-N-propylbutan-2-amine] | – | – | 5.65 ± 0.004 | – | – | – | – |
| CCCN(CC)CCc1c[nH]c2c(F)c(F)c(F)cc12 [compound 165, N-ethyl-N-[2-(5,6,7-trifluoro-1H-indol-3-yl)ethyl]propan-1-amine] | 102.4 ± 0.8 % 5-HT | 102.8 ± 1.7 % 5-HT | 6.69 | 103.0 ± 0.8 % 5-HT | 38.9 nM | 4.57 nM | EC50 [1]: 7.41 nM |
| CCN(C)CCc1c[nH]c2c(C)cc(F)cc12 [compound 169, N-ethyl-2-(5-fluoro-7-methyl-1H-indol-3-yl)-N-methylethan-1-amine] | – | – | 6.05 | – | – | – | – |
| CCC(C)N(CCc1c[nH]c2ccc(F)cc12)C1CC1 (stereo not shown) [compound 172, N-(sec-butyl)-N-(2-(5-fluoro-1H-indol-3-yl)ethyl)cyclopropanamine] | 93.5 ± 0.8 % 5-HT | 82.3 ± 1.7 % 5-HT | 6.47 | 94.0 ± 0.6 % 5-HT | 151 nM | 3.98 nM | EC50 [1]: 6.46 nM |
| Fc1ccc2[nH]cc(CCN(C3CCC3)C3CC3)c2c1 [compound 173, N-cyclopropyl-N-(2-(5-fluoro-1H-indol-3-yl)ethyl)cyclobutanamine] | 82.8 ± 0.8 % 5-HT | 80.4 ± 1.2 % 5-HT | 6.58 | 87.4 ± 0.7 % 5-HT | 302 nM | 7.24 nM | EC50 [1]: 17.8 nM |
| CCN(C)CCc1c[nH]c2c(Br)cc(F)cc12 [compound 174, 2-(7-bromo-5-fluoro-1H-indol-3-yl)-N-ethyl-N-methylethan-1-amine] | – | 39.9 ± 1.1 % 5-HT | 6.42 | 38.2 ± 1.4 % 5-HT | 13.2 nM | 18.6 nM | – |
| CCN(C)CCc1c[nH]c2cc(C)c(F)cc12 [compound 175, N-ethyl-2-(5-fluoro-6-methyl-1H-indol-3-yl)-N-methylethan-1-amine] | – | 51.2 ± 2.0 % 5-HT | 5.96 | 48.6 ± 2.8 % 5-HT | 102 nM | 6.76 nM | – |
| C#CCN(CCc1c[nH]c2ccc(F)cc12)C(C)CC (stereo not shown) [compound 176, N-(2-(5-fluoro-1H-indol-3-yl)ethyl)-N-(prop-2-yn-1-yl)butan-2-amine] | 103.0 ± 0.6 % 5-HT | 99.6 ± 1.5 % 5-HT | 5.89 | 97.8 ± 1.1 % 5-HT | 191 nM | 40.7 nM | EC50 [1]: 28.8 nM |
| CCC(C)N(CC#N)CCc1c[nH]c2ccc(F)cc12 (stereo not shown) [compound 177, 2-(sec-butyl(2-(5-fluoro-1H-indol-3-yl)ethyl)amino)acetonitrile] | – | – | 5.71 | – | – | – | – |
| CCN(C)CCc1c[nH]c2cc(F)c(Cl)cc12 [compound 179, 2-(5-chloro-6-fluoro-1H-indol-3-yl)-N-ethyl-N-methylethan-1-amine] | 67.8 ± 0.6 % 5-HT | 95.5 ± 1.0 % 5-HT | 6.93 | 79.3 ± 0.7 % 5-HT | 22.9 nM | 10.7 nM | EC50 [1]: 10.7 nM |
| C#CCN(CCC)CCc1c[nH]c2c(F)cccc12 [compound 180, N-(2-(7-fluoro-1H-indol-3-yl)ethyl)-N-propylprop-2-yn-1-amine] | 92.7 ± 1.2 % 5-HT | 56.5 ± 2.1 % 5-HT | 5.75 | 80.7 ± 1.6 % 5-HT | 631 nM | 79.4 nM | EC50 [1]: 38 nM |
| CCCN(CC#N)CCc1c[nH]c2c(F)cccc12 [compound 181, 2-((2-(7-fluoro-1H-indol-3-yl)ethyl)(propyl)amino)acetonitrile] | 36.8 ± 0.7 % 5-HT | – | 5.75 | 68.7 ± 1.7 % 5-HT | – | – | EC50 [1, 7]: 295 nM; EC50 [5, 8]: 58.9 nM |
| CCN(C)CCc1c[nH]c2c(Cl)cc(F)cc12 [compound 182, 2-(7-chloro-5-fluoro-1H-indol-3-yl)-N-ethyl-N-methylethan-1-amine] | – | – | 6.62 | – | – | – | – |
| CCCN1CCC[C@@H]1Cc1c[nH]c2ccc(F)cc12 [compound 184, (R)-5-fluoro-3-((1-propylpyrrolidin-2-yl)methyl)-1H-indole] | – | – | 6.60 | – | – | – | – |
| CN1CCC[C@@H]1Cc1c[nH]c2cc(F)c(F)cc12 [compound 185, (R)-5,6-difluoro-3-((1-methylpyrrolidin-2-yl)methyl)-1H-indole] | – | – | 6.90 | – | – | – | – |
| CN1CCC[C@@H]1Cc1c[nH]c2c(F)cccc12 [compound 186, (R)-7-fluoro-3-((1-methylpyrrolidin-2-yl)methyl)-1H-indole] | – | – | 6.47 | – | – | – | – |
